Structures can show the parent of a compound that is named as a salt.
Experiments:
Assay type in all cases: cell-based
HTT mRNA = experiment: Gene panel canonical junction qPCR assay, decrease in CJ mRNA, Table 3
Summary of the method: (§1)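 IC50 is the concentration giving 50% response in decrease of the canonical junction transcript, fitted with a 4-parameter logistic equation. Transcripts were quantified by RT-qPCR in A673 or K562 cells after 24 h exposure to compounds dosed up to 10 uM in 3-fold steps.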

MYB mRNA = experiment: as above
Summary of the method: as §1

SMN2 mRNA = experiment: as above
Summary of the method: as §1

[1] = test system: SH-SY5Y (human neuroblastoma) cells; experiment: Cell viability, Cell Titer Glo 2.0 assay; details: read-out: Viability SHSY5Y.3 GI50
Summary of the method: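 Steps: serial DMSO dilution of compound, 1:100 dilution into medium, addition to cells (0.1% DMSO final). Incubate 72 h at 37 °C, 5% CO2. Assay with CellTiter-Glo 2.0 reagent.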

[2] = decrease in canonical junction (CJ) mRNA, gene panel qPCR, Table 3
[3] = decrease in CJ mRNA levels, canonical junction qPCR, gene panel

IC50 (HTT mRNA; [2])	IC50 (MYB mRNA; [2])	IC50 (SMN2 mRNA; [2])	GI50 [1]	IC50 (HTT mRNA; [3])	IC50 (MYB mRNA; [3])	IC50 (SMN2 mRNA; [3])	Compound
> 10000 nM	1000 to 10000 nM	100 to 1000 nM	> 10000 nM				CN[C@H]1CCN(c2ccc(C(=O)Nc3cc(F)c4nc(C)cn4c3)c3nn(C)cc23)[C@H]1C (single isomer, unassigned) [Compound 152]
1000 to 10000 nM	< 100 nM	< 100 nM	100 to 1000 nM				CCNC1CCN(c2ccc(C(=O)Nc3cc(F)c4nn(C)cc4c3)c3nn(C)cc23)CC1 [Compound 182, 4-(4-(ethylamino)piperidin-1-yl)-N-(7-fluoro-2-methyl-2H-indazol-5-yl)-2-methyl-2H-indazole-7-carboxamide]
< 100 nM	< 100 nM	< 100 nM	< 100 nM				COc1c(NC(=O)c2c(F)cc(N3CCC(NC4CC4)CC3)c3cn(C)nc23)cn2cc(C)nc2c1F [Compound 207, 4-[4-(cyclopropylamino)-1-piperidyl]-6-fluoro-N-(8-fluoro-7-methoxy-2-methyl-imidazo[1,2-a]pyridin-6-yl)-2-methyl-indazole-7-carboxamide]
> 10000 nM	100 to 1000 nM	< 100 nM	1000 to 10000 nM				CCNC1CCN(c2ccc(C(=O)Nc3cc(F)c4nc(C)cn4c3)c3nnn(C)c23)CC1 [Compound 199, 7-[4-(ethylamino)-1-piperidyl]-N-(8-fluoro-2-methylimidazo[1,2-a]-pyridin-6-yl)-1-methylbenzotriazole-4-carboxamide]
> 10000 nM	< 100 nM	< 100 nM	100 to 1000 nM				Cc1cn2cc(NC(=O)c3c(O)cc(N4CC[C@@H](NC5CC5)C4)c4cn(C)nc34)cc(F)c2n1 [Compound 288, 4-[(3R)-3-(cyclopropylamino)-pyr-rolidin-1-yl]-N-(8-fluoro-2-methyl-imidazo[1,2-a]pyridin-6-yl)-6-hydroxy-2-methyl-indazole-7-carboxamide]
> 10000 nM	100 to 1000 nM	< 100 nM	100 to 1000 nM				CN[C@H]1CCN(c2ccc(C(=O)Nc3cc(F)c4nc(C)cn4c3)c3nn(C)cc23)[C@@H]1C (single isomer, unassigned) [Compound 154]
> 10000 nM	> 10000 nM	1000 to 10000 nM	1000 to 10000 nM				CCNC1CCN(c2ccc(C(=O)Nc3cc4cn(C)nc4cc3OC)c3[nH]ccc23)CC1 [Compound 178, 4-[4-(ethylamino)-1-piperidyl]-N-(6-methoxy-2-methyl-indazol-5-yl)-1H-indole-7-carboxamide]
1000 to 10000 nM	< 100 nM	< 100 nM	100 to 1000 nM				Cc1cn2cc(NC(=O)c3ccc(N4CCC(NC5CC5(C)C)CC4)c4cn(C)nc34)cc(F)c2n1 (stereo not shown) [Compound 205, 4-(4-((2,2-dimethylcyclopropyl)amino)piperidin-1-yl)-N-(8-fluoro-2-methylimidazo[1,2-a]pyridin-6-yl)-2-methyl-2H-indazole-7-carboxamide]
> 10000 nM	1000 to 10000 nM	100 to 1000 nM	> 10000 nM				Cc1cn2cc(NC(=O)c3ccc(N4CCNC(C(F)(F)F)C4)c4cn(C)nc34)cc(F)c2n1 (stereo not shown) [Compound 248, N-(8-fluoro-2-methyl-imidazo[1,2-a]-pyridin-6-yl)-2-methyl-4-[3-(trifluoro-methyl)piperazin-1-yl]indazole-7-carboxamide]
> 10000 nM	< 100 nM	< 100 nM	100 to 1000 nM				CCN[C@@H]1CCN(c2cc(O)c(C(=O)Nc3cc(F)c4nc(C)cn4c3)c3nn(C)cc23)C1 [Compound 144, 4-[3-(ethylamino)pyrrolidin-1-yl]-N-(8-fluoro-2-methyl-imidazo[1,2-a]pyridin-6-yl)-6-hydroxy-2-methyl-indazole-7-carboxamide]
< 100 nM	< 100 nM	< 100 nM	< 100 nM				CNC1(C)CCN(c2cc(F)c(C(=O)Nc3cc(F)c4nc(C)cn4c3)c3nn(C)cc23)CC1 [Compound 179, 6-fluoro-N-(8-fluoro-2-methyl-imidazo[1,2-a]pyridin-6-yl)-2-methyl-4-[4-methyl-4-(methylamino)-1-piperidyl]indazole-7-carboxamide]
1000 to 10000 nM	100 to 1000 nM	< 100 nM	100 to 1000 nM				Cc1cn2cc(NC(=O)c3ccc(N4CCC(NC5CC5)CC4)c4ccoc34)cc(F)c2n1 [Compound 191, 4-[4-(cyclopropylamino)-1-piperidyl]-N-(8-fluoro-2-methyl-imidazo[1,2-a]pyridin-6-yl) benzofuran-7-carboxamide]
> 10000 nM	100 to 1000 nM	< 100 nM	1000 to 10000 nM				CN[C@H]1CCN(c2ccc(C(=O)Nc3cc(F)c4nc(C)cn4c3)c3nnn(C)c23)C1 [Compound 166, (S)-N-(8-fluoro-2-methylimidazo-[1,2-a]pyridin-6-yl)-1-methyl-7-(3-(methylamino)pyrrolidin-1-yl)-1H-benzo[d]-[1,2,3]triazole-4-carboxamide]
100 to 1000 nM	100 to 1000 nM	< 100 nM	1000 to 10000 nM				CN[C@H]1C[C@@H](C)N(c2ccc(C(=O)Nc3cc(F)c4nc(C)cn4c3)c3nn(C)cc23)C1 (single isomer, unassigned) [Compound 128]
100 to 1000 nM	100 to 1000 nM	100 to 1000 nM	100 to 1000 nM				Cc1cn2nc(NC(=O)c3ccc(N4CCC(NC5CC5)CC4)c4cn(C)nc34)cc(C)c2n1 [Compound 187, 4-[4-(cyclopropylamino)-1-piperidyl]-N-(2,8-dimethylimidazo-[1,2-b]pyridazin-6-yl)-2-methyl-indazole-7-carboxamide]
> 10000 nM	100 to 1000 nM	< 100 nM	1000 to 10000 nM				CCNC1CCN(c2ccc(C(=O)Nc3cc(F)c4nc(CO)cn4c3)c3nn(C)cc23)CC1 [Compound 193, 4-[4-(ethylamino)-1-piperidyl]-N-[8-fluoro-2-(hydroxymethyl)imidazo[1,2-a]pyridin-6-yl]-2-methyl-indazole-7-carboxamide]
1000 to 10000 nM	100 to 1000 nM	< 100 nM	1000 to 10000 nM				CO[C@H]1C[C@H](N[C@H]2CCN(c3ccc(C(=O)Nc4cc(F)c5nc(C)cn5c4)c4nn(C)cc34)C2)C1 [Compound 275, N-(8-fluoro-2-methylimidazo[1,2-a]pyridin-6-yl)-4-((S)-3-(((1r,3S)-3-methoxycyclobutyl)amino)pyrrolidin-1-yl)-2-methyl-2H-indazole-7-carboxamide]
> 10000 nM	> 10000 nM	1000 to 10000 nM	> 10000 nM				Cc1cn2cc(NC(=O)c3ccc(N4C[C@@H](C)N[C@@H](C)C4)c4[nH]nnc34)cc(F)c2n1 [Compound 243, 7-((3S,5R)-3,5-dimethylpiperazin-1-yl)-N-(8-fluoro-2-methylimidazo[1,2-a]pyridin-6-yl)-1H-benzo[d][1,2,3]-triazole-4-carboxamide hydrochloride]
100 to 1000 nM	100 to 1000 nM	< 100 nM	1000 to 10000 nM				CCNC1CCN(c2ccc(C(=O)Nc3cc(F)c4nc(C)cn4c3)c3nn(C)nc23)CC1 [Compound 196, 7-[4-(ethylamino)piperidin-1-yl]-N-(8-fluoro-2-methyl-imidazo[1,2-a]pyridin-6-yl)-2-methyl-1,2,3-benzotriazole-4-carboxamide]
1000 to 10000 nM	< 100 nM	< 100 nM	100 to 1000 nM				CCNC1CCN(c2ccc(C(=O)Nc3cc(F)c4nc(CF)cn4c3)c3nn(C)cc23)CC1 [Compound 202, 4-[4-(ethylamino)-1-piperidyl]-N-[8-fluoro-2-(fluoromethyl)imidazo[1,2-a]pyridin-6-yl]-2-methyl-indazole-7-carboxamide]
			100 to 1000 nM	> 10000 nM	> 10000 nM	100 to 1000 nM	COc1c(NC(=O)c2ncc(N3CCNCC3)c3cn[nH]c23)cn2cc(C)nc2c1F [Compound 606, N-(8-fluoro-7-methoxy-2-methyl-imidazo[1,2-a]pyridin-6-yl)-4-piperazin-1-yl-1H-pyrazolo[3,4-c]pyridine-7-carboxamide]
100 to 1000 nM	100 to 1000 nM	< 100 nM	100 to 1000 nM				Cc1cn2cc(NC(=O)c3ccc(C4CCC(NC5CC5)CC4)c4cn(C)nc34)cc(F)c2n1 (stereo not shown) [Compound 192, 4-[4-(cyclopropylamino)cyclohexyl]-N-(8-fluoro-2-methyl-imidazo[1,2-a]pyridin-6-yl)-2-methyl-indazole-7-carboxamide]
100 to 1000 nM	< 100 nM	< 100 nM	100 to 1000 nM				Cc1cn2cc(NC(=O)c3ccc(N4CCC(NC5CC56CC6)CC4)c4cn(C)nc34)cc(F)c2n1 (stereo not shown) [Compound 203, N-(8-fluoro-2-methyl-imidazo[1,2-a]-pyridin-6-yl)-2-methyl-4-[4-(spiro[2.2]pentan-2-ylamino)-1-piperidyl] indazole-7-carboxamide]
1000 to 10000 nM	100 to 1000 nM	< 100 nM	100 to 1000 nM				CCNC1CCN(c2ccc(C(=O)Nc3ccc4nc(C)cn4c3)c3nn(C)cc23)CC1 [Compound 176, 4-[4-(ethylamino)-1-piperidyl]-2-methyl-N-(2-methylimidazo[1,2-a]pyridin-6-yl)-indazole-7-carboxamide]
1000 to 10000 nM	100 to 1000 nM	< 100 nM	1000 to 10000 nM				Cc1cn2cc(NC(=O)c3ccc(N4CCNC(C(F)F)C4)c4cn(C)nc34)cc(F)c2n1 (stereo not shown) [Compound 249, 4-[3-(difluoromethyl)piperazin-1-yl]-N-(8-fluoro-2-methylimidazo[1,2-a]pyridin-6-yl)-2-methyl-indazole-7-carboxamide]
